In patent publication US11478440B2, “Combination of Elafibranor or derivatives thereof with an anti-NASH, anti-fibrotic or anti-cholestatic agent” (GENFIT, priority 2017, dated 2022):

Columns and labels:
[1] = tested on: mice with NASH (CDFF-fed mice); test: Mouse fibrosing-NASH model (CDFF diet, 8 weeks); format: in vivo, C57Bl/6J mice; conditions: elafibranor 3 mg/kg/day
Procedure: The preventive effects of the combinations of elafibranor with selonsertib, GKT-831 or GS-0976 were assessed in mice fed a choline-deficient, […] diet (CDAA) supplemented with 2% cholesterol, 30% milk fat diet and high fructose corn syrup 55 (55% fructose/45% glucose for a final concentration of 42 g/L) in drinking water (Mells et al J Nutr Biochem 2015) (CDFF diet). 5-6 weeks old male C57Bl/6J mice were fed a control (CSAA) diet (n=4), CDFF (n=12), or CDFF supplemented with elafibranor (1 or 3 mg/kg/day), selonsertib (30 mg/kg/day), GKT-831 ([…]) alone or in combination (n=8 per group) for 8 weeks.
The body weight, the food and water intake were monitored twice per week. On the last day of treatment, plasma samples were obtained from retro-orbital blood sampling and mice were sacrificed after a 6 h-fasting period. The liver was rapidly excised for biochemical and histological analyses. All animal procedures were performed according to standard protocols and in accordance with the standard recommendations for the proper care and use of laboratory animals.
The liver slices were fixed in a formalin 4% solution. Then, the liver pieces were washed 30 minutes in PBS, and dehydrated in ethanol solutions (successive baths at 70, 80, 95 and 100% ethanol). The liver pieces were incubated in three different baths of Xylene (Honeywell cat #534056), followed by two baths in liquid paraffin (59° C.). Liver pieces were then put into racks that were gently filled with HISTOWAX to completely cover the tissue.
Liver sections were deparaffinized, rehydrated and incubated for 3 minutes in Mayer's Hematoxylin (Microm, cat #F/C0303). Then, the liver sections were rinsed in water and incubated 1 minute in a Eosin Y 0.5% alcoholic (VWR, cat #1.02439.0500) and Erythrosin 0.5% solution (VWR, cat #1.15936.0010), and rinsed in with ethanol. Sections were then incubated for 2 minutes in Safranin, and were eventually dehydrated and mounted using the CV Mount medium (Leica, cat #046430011).
(§1) Liver sections were deparaffinized, rehydrated and incubated for 15 minutes in a solution of Fast Green FCF 0.1% (Sigma-Aldrich, cat #F7258) before rinsing in a bath of 0.5% acetic acid (Panreac, cat #131008.1611). Then, the liver sections were rinsed in water and incubated 30 minutes in a solution of 0.1% sirius red (Direct Red 80, Fluka cat #43665) in saturated aqueous picric acid (Sigma-Aldrich cat #P6744). Sections were then dehydrated, and mounted using the CV Mount medium (Leica, cat #14046430011).
(§2) A technician blinded to the source of each liver specimen performed histological examinations. Virtual slides were generated using the Pannoramic 250 scanner from 3D Histech. For each animal, a score summarizing the main histological lesions of NASH was attributed according to the NASH Clinical Research Network (Kleiner 2005, Brunt 1999). Briefly, steatosis, lobular inflammation and hepatocyte ballooning were scored. The NAFLD Activity Score (NAS) was established for each individual as the unweighted sum of the steatosis (0-3), lobular inflammation (0-3) and the ballooning (0-2) injury grading.
(§3) Using Quant Center software (3D Histech, including Pattern Quant and Histo Quant modules), collagen-stained areas were quantified. Briefly, Pattern Quant was used to detect the tissue and measure its surface. Then, Histo Quant was used to detect the stained collagen content and measure its surface, based on a color threshold method. The fibrosis area was then expressed as the percentage of the collagen surface to the whole tissue per animal.
The hepatic collagen content was determined using the appropriate QuickZyme kit (Total collagen assay, cat #QZB-totcol2). The assay is based on the detection of hydroxyproline, which is a non-proteinogenic amino acid mainly found in the triple helix of collagen. […]

[2] = tested on: fibrosing NASH-model of rats fed a CDAA+1% cholesterol diet; test: Chronic CDAA+1% cholesterol rat model: liver histology (picrosirius fibrosis surface, NASH lesions); format: in vivo, Wistar rats
Procedure: The preventive effects of Elafibranor alone, OCA alone and the combination of both were assessed in a fibrosing NASH-model of rats fed a CDAA+1% cholesterol diet. 150-175 g male Wistar rats were fed a control (CSAA) diet, CDAA+1% cholesterol diet, or CDAA+1% cholesterol diet supplemented with Elafibranor 1, 3 and 10 mg/kg/day, OCA 10 and 30 mg/kg/day or combined drugs (Elafibranor 1, 3 and 10 mg/kg/day combined to OCA 10 mg/kg/day) for 12 weeks.
The body weight and the food intake were monitored twice per week. On the last day of treatment, rats were sacrificed after a 6 h fasting period. The liver was rapidly excised for biochemical and histological studies.
The liver slices were first fixed for 12 hours in formalin 4% solution. Then, the liver pieces were washed 30 minutes in PBS, and dehydrated in ethanol solutions (successive baths at 70, 80, 95 and 100% ethanol). The liver pieces were incubated in three different baths of Xylene (Sigma-Aldrich cat #534056), followed by two baths in liquid paraffin (56° C.). Liver pieces were then put into racks that were gently filled with HISTOWAX to completely cover the tissue.
The paraffin blocks containing the tissue pieces were removed from the racks and stored at room temperature. The liver blocks were cut into 3 μm slices.
Liver sections were deparaffinized, rehydrated and incubated for 3 minutes in Mayer's Hematoxylin (Microm, cat #F/C0303). Then, the liver sections were rinsed in water and incubated 1 minute in Eosin G (VWR, cat #1.09844.1000). Sections were rinsed in water then dehydrated, and mounted using the CV Mount medium (Leica, cat #14046430011).
as §1
as §2, with “hepatocytes” for “hepatocyte”, “(NAS score)” for “(NAS)”
as §3

1-[4-methylthiophenyl]-3-[3,5-dimethyl-4-carboxydimethylmethyloxyphenyl]prop-2-en-1-one [Elafibranor]
NASH histology (steatosis, hepatic lobular inflammation, NAFLD activity score) [1]: improves NASH histology
hepatic expression of genes related to inflammation, tissue remodeling and fibrogenesis ([1]; alone or with selonsertib 30 mg/kg/day): decreases
hepatic fibrosis (histology, hepatic collagen content, PIIINP and TIMP-1) ([1]; selonsertib 30 mg/kg/day, alone or combined): marked reduction of hepatic fibrosis
fibrosis development ([2]; CDAA/chol diet rats, 12 weeks): very significant attenuation of fibrosis development
hepatocyte damage as judged by ballooning ([2]; CDAA/chol diet rats, 12 weeks): prevented or attenuated by elafibranor, in a dose-dependent manner
lobular inflammation ([2]; CDAA/chol diet rats, 12 weeks): attenuated by elafibranor in a dose-dependent manner
Fibrosis surface, percentage over the untreated CDAA + 1% cholesterol rats ([2]; GFT505 3 mg/kg/d, OCA 10 mg/kg/d, alone or combined, 12 weeks in diet): 34% ± 17%
